Experimental data: patent US20080027088A1, “Imidazole-Based Hmg-Coa Reductase Inhibitors” (Warner-Lambert Company, LLC, priority 2004, published 2008)
Marks after values point to notes of the source that are not given here.

Assays:
Format in all cases: in vivo
[1] = test system: ApoE KO mice fed a Western diet; experiment: Lesion development in the cuffed femoral artery, 4 weeks
Experimental: (§1) Animal experiments—Male C57BI/6J and ApoE KO mice on C57BI/6J background were obtained from the Jackson Laboratory (Bar Harbor, Me.) or Taconic (Germantown, N.Y.) (Plaque formation in ApoE KO mice is lipid-driven (A. S. Plump et al., Cell. 1992;71 (2):343-53)). Myriocin was mixed with Western diet containing 0.21% cholesterol and 21% fat. 8-12-week-old mice received 0.3 mg myriocin/kg/day for 12 weeks (Table 1). 10-12 week-old ApoE KO mice (n=8) were pre-fed a western diet for 2 weeks and mice received various concentrations of myriocin for 4 weeks in diet admix. Control groups consisted of ApoE KO mice fed normal chow or Western diet without myriocin, and normal chow-fed C57BI/6J mice. Body weight and chow feeding was measured every week to examine the food consumption. For the femoral artery cuff model, 8-10 week-old male ApoE KO mice were anethetized and the right femoral artery was dissected from its surroundings. A nonconstrictive polyethylene cuff (Portex, 0.40-mm inner diameter, 0.80-mm outer diameter, and 1.5-mm length) was placed looselyaround the right femoral artery.
For histological analysis, the mice were perfused and fixed in Zinc-Tris fixative. Paraffin embedded sections were stained with Masson's Trichrome. Intimal macrophages were immunohistochemically stained using MAC-2 antibody (clone M3/38 from Cedarlane Laboratories Limited) counterstained with Verhoeff elastic stain. T-lymphocytes were immunohistochemically stained with rat CD3 antibody (clone CD3-12, Serotec). Lesion thickness and area occupied by macrophages were determined using Image Pro Plus software.
FIG. 5. Lesion Development in the Cuffed Femoral Artery of ApoE KO mice Fed a Western Diet. Mice were anesthetized and the right femoral artery was dissected from its surroundings. […] Atherosclerotic lesion (black bar) and macrophage size (gray bar) in the femoral artery were quantified by using Image Pro Plus software (FIG. 5A). Plasma serum amyloid A levels were determined by colormetric ELISA (FIG. 5B). […]

ApoE knockout mice = experiment: Plasma sphingomyelin and phosphatidylcholine by HPLC, 4 weeks (Table 2); conditions: for PC in plasma / SM in plasma / SM; PC molar ratio: diet admix 4 weeks, n = 10
Experimental: as §1, with “10-12 week-old ApoE KO mice (n=8) were pre-fed a western diet for 2 weeks and mice received various concentrations of myriocin for 4 weeks in diet admix.” left out
The liquid chromatography system was composed of twin Shimadzu (Columbia, Md.) LC-10ADvp HPLC pumps with a SCL-10Avp controller (flow rate 0.2 mL/minute), and a LEAP Technologies (Carrboro, N.C.) CTC PAL autosampler. For the quantitative method, the analytical column was a Phenomenex (Torrance, Calif.) Polar-RP (2.0×150 mm, 4 μm) with a MetaChem (Torrance, Calif.) MetaGuard Polaris C8 2.0 mm direct connect (5 μm) guard column. Mobile phase A consisted of water/acetonitrile/formic acid (60/40/0.1) and mobile phase B was propanol. The HPLC pumps were programmed with a gradient for each injection to deliver 98% mobile phase A (0-1 minute), 30% mobile phase A (1-2 minutes), 30% mobile phase A (2-4 minutes), and 98% mobile phase A (4-4.5 minutes). A sample volume of 2 μL was injected into the LC/MS/MS system. Final chromatographic retention times for sphingomyelin, sphinganine, psychosine (internal standard) and ceramide were 4.84 minutes, 5.43 minutes, 4.92 minutes and 5.31 , minutes, respectively. Lipid extracts were analyzed by HPLC and evaporative light scattering detector to determine plasma sphingomyelin and phosphatidylcholine (PC) levels (R. Homan and M.K. Anderson, J. Chromatogr. B. Biomed. Sci. Appl. 1998;708:21-6).
To investigate whether myriocin was effective in lowering sphingomyelin biosynthesis, various concentrations of myriocin were administered to ApoE KO mice for 4 weeks and plasma SM levels were examined. […] At the highest dose of myriocin (1 mg/kg/day), plasma sphingomyelin levels were reduced by 70% when compared with no-myriocin control. Thus, myriocin in a diet admix was effective in inhibiting sphingomyelin biosynthesis and lowering plasma sphingomyelin levels. Since SM levels relative to phospholipids has been regarded as a risk factor for coronary artery disease, plasma PC levels were determined by HPLC analysis. Although there were significant changes in plasma SM levels, plasma PC levels were not changed to the same extent by myriocin. Consequently, SM/PC molar ratio was lowered by myriocin in a dose-dependent manner (Table 2).

[2] = test system: ApoE KO mice fed a Western diet; experiment: Plasma serum amyloid A by ELISA, cuffed femoral artery study; conditions: 4 weeks
Experimental: Plasma lipids and serum amyloid A measurement—Mice were sacrificed by CO2 inhalation and blood was collected through cardiac puncture. Plasma concentrations of total cholesterol and triglyceride were determined enzymatically on a Cobas Mira Plus auto-analyzer using Cholesterol R1 and Triglycerides Reagent methods, respectively (Roche Diagnostics, Indiana, USA). Colormetric changes were measured at 500 nm. Lipoproteins were separated from mouse plasma by fast-protein liquid chromatography utilizing a Superose 6HR column. Cholesterol distribution among lipoproteins was determined by in-line post column analysis (K. A. Kieft, T. M. Bocan and B. R. Krause, J. Lipid Res. 1991; 32:859-66). Serum Amyloid A (SAA) protein in plasma was measured by ELISA according to the manufacturer's instructions (Biosource).
FIG. 5. Lesion Development in the Cuffed Femoral Artery of ApoE KO mice Fed a Western Diet. Mice were anesthetized and the right femoral artery was dissected from its surroundings. A nonconstrictive polyethylene cuff (Portex, 0.40-mm inner diameter, 0.80-mm outer diameter, and 1.5-mm length) was placed looselyaround the right femoral artery. […] Atherosclerotic lesion (black bar) and macrophage size (gray bar) in the femoral artery were quantified by using Image Pro Plus software (FIG. 5A). Plasma serum amyloid A levels were determined by colormetric ELISA (FIG. 5B). […]

In the case of `CCCCCCC(=O)CCCCCC/C=C/C[C@@H](O)[C@H](O)[C@@](N)(CO)C(=O)O` [myriocin], the “reduction of development of atherosclerotic lesions, cuffed femoral artery” value ([1]; 0.1 mg/kg/day) is reported as 43%, the “reduction of macrophage accumulation, cuffed femoral artery” value ([1]; 0.1 mg/kg/day) is reported as 47% and the “lesion area reduced, cuffed femoral artery” value ([1]; 0.3 mg/kg/day, vs no-myriocin control) is reported as “more than 98%”. The “plasma sphingomyelin levels reduced (HPLC)” value (ApoE knockout mice; 1 mg/kg/day, 4 weeks, vs no-myriocin control) was 70%, the PC in plasma (ApoE knockout mice; WD + 0.1 mg myr) was 2.763 ± 0.195 nmol/mL and the SM in plasma (ApoE knockout mice; WD + 0.1 mg myr) was 0.379 ± 0.035 nmol/mL. The “SM; PC molar ratio” value (ApoE knockout mice; WD + 0.1 mg myr) was 0.137 ± 0.005^b, the PC in plasma (ApoE knockout mice; WD + 0.3 mg myr) was 1.999 ± 0.085 nmol/mL and the SM in plasma (ApoE knockout mice; WD + 0.3 mg myr) was 0.243 ± 0.032 nmol/mL. The “SM; PC molar ratio” value (ApoE knockout mice; WD + 0.3 mg myr) was 0.122 ± 0.013^b, the PC in plasma (ApoE knockout mice; WD + 1 mg myr) was 2.044 ± 0.146 nmol/mL and the SM in plasma (ApoE knockout mice; WD + 1 mg myr) was 0.175 ± 0.013 nmol/mL. For the same compound, the “SM; PC molar ratio” value (ApoE knockout mice; WD + 1 mg myr) was 0.086 ± 0.008^b and the “plasma serum amyloid A lowered” value [2] was 84%.
